# Experiments:
# Pseudomonas aeruginosa [1] = assay: Growth inhibition of Pseudomonas aeruginosa PA14 after 24 hrs; format: functional, organism-based; conditions: PA14, 24 h
# Staphylococcus aureus [2] = assay: Antibacterial activity against methicillin-resistant Staphylococcus aureus; format: functional
# Klebsiella pneumoniae = assay: Antibacterial activity against Klebsiella pneumoniae; format: functional
# Pseudomonas aeruginosa [3] = assay: Antibacterial activity against Pseudomonas aeruginosa; format: functional
# Enterococcus faecalis [4] = assay: Antibacterial activity against Enterococcus faecalis UNT-047 expressing ermB by broth microdilution method; format: functional
# Pseudomonas aeruginosa [5] = assay: Antibacterial activity against Pseudomonas aeruginosa ATCC 27853 by broth microdilution method; format: functional
# Staphylococcus aureus [6] = assay: Antibacterial activity against methicillin-resistant Staphylococcus aureus NRS384 expressing MsrA by broth microdilution method; format: functional
# Acinetobacter baumannii = assay: Antibacterial activity against Acinetobacter baumannii ATCC 19606 by broth microdilution method; format: functional; conditions: ATCC 19606 = CIP 70.34 = JCM 6841
# Enterococcus faecalis [7] = assay: Antibacterial activity against Enterococcus faecalis ATCC 29212 by broth microdilution method; format: functional
# Streptococcus pneumoniae [8] = assay: Antibacterial activity against Streptococcus pneumoniae ATCC 49619 by broth microdilution method; format: functional
# Staphylococcus aureus [9] = assay: Antibacterial activity against Staphylococcus aureus ATCC 29213 by broth microdilution method; format: functional
# Staphylococcus aureus [10] = assay: Antibacterial activity against Staphylococcus aureus BAA-977 expressing iermA by broth microdilution method; format: functional
# Streptococcus pneumoniae [11] = assay: Antibacterial activity against Streptococcus pneumoniae UNT-042 expressing ermB/mefA by broth microdilution method; format: functional
# Pseudomonas aeruginosa [12] = assay: Antibacterial activity against Pseudomonas aeruginosa KW799 after 20 hrs under iron-rich medium by broth microdilution method; format: functional; conditions: KW799, 20 h
# Pseudomonas aeruginosa [13] = assay: Antibacterial activity against Pseudomonas aeruginosa PAO1 after 20 hrs under iron-deficient medium by broth microdilution method; format: functional; conditions: PAO1, 20 h
# Pseudomonas aeruginosa [14] = assay: Antibacterial activity against Pseudomonas aeruginosa PA4 after 20 hrs under iron-deficient medium by broth microdilution method; format: functional; conditions: PA4, 20 h
# Pseudomonas aeruginosa [15] = assay: Antibacterial activity against Pseudomonas aeruginosa PA4 after 20 hrs under iron-rich medium by broth microdilution method; format: functional; conditions: PA4, 20 h
# Pseudomonas aeruginosa [16] = assay: Antibacterial activity against Pseudomonas aeruginosa PAO1 after 20 hrs under iron-rich medium by broth microdilution method; format: functional; conditions: PAO1, 20 h
# Pseudomonas aeruginosa [17] = assay: Antibacterial activity against Pseudomonas aeruginosa KW799 after 20 hrs under iron-deficient medium by broth microdilution method; format: functional; conditions: KW799, 20 h
# Pseudomonas aeruginosa [18] = assay: Antibacterial activity against Pseudomonas aeruginosa KW799/61 after 20 hrs under iron-deficient medium by broth microdilution method; format: functional; conditions: KW799/61, 20 h
# Pseudomonas aeruginosa [19] = assay: Antibacterial activity against Pseudomonas aeruginosa KW799/61 after 20 hrs under iron-rich medium by broth microdilution method; format: functional; conditions: KW799/61, 20 h
# Staphylococcus aureus [20] = assay: Antibacterial activity against Staphylococcus aureus ATCC 25923 after 16 to 20 hrs by CLSI protocol based broth microdilution method; format: functional
# [21] = system: Staphylococcus epidermidis; assay: Antibacterial activity against Staphylococcus epidermidis ATCC 12228 after 16 to 20 hrs by CLSI protocol based broth microdilution method; format: functional
compound,measurement,setting,value
CCCCCC[C@@H](CCCCC[C@H](O)C(N)=O)OC(=O)[C@@H]1CC=CN1C(=O)c1ccccc1O,IC50,Pseudomonas aeruginosa [1],8 µM
CCCCCC[C@@H](CCCCC[C@@H](O)C(N)=O)OC(=O)[C@@H]1CC=CN1C(=O)c1ccccc1O,IC50,Pseudomonas aeruginosa [1],1.5 µM
CN(C)[C@@H]1C(O)=C(C(N)=O)C(=O)[C@@]2(O)C(O)=C3C(=O)c4c(O)c(NC(=O)CN5CCCC5)cc(F)c4C[C@H]3C[C@@H]12 [ERAVACYCLINE],MIC,Staphylococcus aureus [2],0.015 to 4 µg/mL
same,MIC,Klebsiella pneumoniae,0.03 to 16 µg/mL
same,MIC,Pseudomonas aeruginosa [3],0.06 to 64 µg/mL
CO[C@]1(C)C[C@@H](C)CN[C@H](C)[C@@H]2N(CCCCn3cc(-c4cccc(N)c4)nn3)C(=O)O[C@]2(C)[C@@H](CCF)OC(=O)[C@H](C)C(=O)[C@H](C)[C@H]1O[C@@H]1O[C@H](C)C[C@H](N(C)C)[C@H]1O,MIC,Enterococcus faecalis [4],> 64 µg/mL
same,MIC,Pseudomonas aeruginosa [5],> 64 µg/mL
same,MIC,Staphylococcus aureus [6],2 µg/mL
same,MIC,Acinetobacter baumannii,4 µg/mL
same,MIC,Enterococcus faecalis [7],0.125 µg/mL
same,MIC,Streptococcus pneumoniae [8],≤ 0.03 µg/mL
same,MIC,Staphylococcus aureus [9],1 µg/mL
same,MIC,Staphylococcus aureus [10],1 µg/mL
same,MIC,Streptococcus pneumoniae [11],2 µg/mL
CC(=O)Oc1cccc(C(=O)NCCCC(CCCNC(=O)c2cccc(OC(C)=O)c2OC(C)=O)(CCCNC(=O)c2cccc(OC(C)=O)c2OC(C)=O)N[C@@H](C(=O)N[C@@H]2C(=O)N3[C@@H]2SC(C)(C)[C@@H]3C(=O)O)c2ccc(O)cc2)c1OC(C)=O,MIC,Pseudomonas aeruginosa [12],12.5 to 50 µM
same,MIC,Pseudomonas aeruginosa [13],0.05 to 0.39 µM
same,MIC,Pseudomonas aeruginosa [14],0.05 to 0.39 µM
same,MIC,Pseudomonas aeruginosa [15],12.5 to 50 µM
same,MIC,Pseudomonas aeruginosa [16],12.5 to 50 µM
same,MIC,Pseudomonas aeruginosa [17],0.05 to 0.39 µM
same,MIC,Pseudomonas aeruginosa [18],0.05 to 0.39 µM
same,MIC,Pseudomonas aeruginosa [19],12.5 to 50 µM
c1ccc2nc3ccccc3nc2c1 [PHENAZINE],MIC,Staphylococcus aureus [20],6.25 µM
same,MIC,[21],6.25 µM
